Here are results for ten compounds from patent US11655235B2, “Pyrrolidine and piperidine compounds” (YUHAN CORPORATION, priority 2019, dated 2023).

Holding throughout (type): biochemical
The target of one assay is T1, Recombinant human FAP (Homo sapiens, UniProt Q12884).
T1 construct: purchased R&D systems
T1 sequence (Q12884 1-760): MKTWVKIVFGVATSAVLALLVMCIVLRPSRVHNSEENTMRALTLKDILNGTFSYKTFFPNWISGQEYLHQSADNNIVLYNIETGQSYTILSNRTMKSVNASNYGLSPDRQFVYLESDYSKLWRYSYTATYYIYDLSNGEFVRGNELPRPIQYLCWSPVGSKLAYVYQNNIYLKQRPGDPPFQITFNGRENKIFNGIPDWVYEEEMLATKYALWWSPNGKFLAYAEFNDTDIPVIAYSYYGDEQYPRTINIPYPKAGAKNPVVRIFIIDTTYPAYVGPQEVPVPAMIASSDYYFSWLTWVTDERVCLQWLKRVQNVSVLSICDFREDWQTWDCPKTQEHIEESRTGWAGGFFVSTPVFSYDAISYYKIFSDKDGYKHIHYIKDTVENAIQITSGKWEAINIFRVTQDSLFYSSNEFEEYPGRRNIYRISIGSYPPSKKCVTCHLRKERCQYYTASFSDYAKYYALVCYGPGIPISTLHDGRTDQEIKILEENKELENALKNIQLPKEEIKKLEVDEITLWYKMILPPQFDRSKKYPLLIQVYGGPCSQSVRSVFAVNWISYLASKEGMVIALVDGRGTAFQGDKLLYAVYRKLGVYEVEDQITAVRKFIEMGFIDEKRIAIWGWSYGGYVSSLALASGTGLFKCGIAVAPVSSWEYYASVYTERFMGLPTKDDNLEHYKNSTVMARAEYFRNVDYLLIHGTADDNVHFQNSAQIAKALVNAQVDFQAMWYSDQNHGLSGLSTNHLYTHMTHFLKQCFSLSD
Briefly: FAP inhibition, fluorogenic substrate Z-Gly-Pro-AMC. The method, boiled down:
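Recombinant human FAP, 10 ng per reaction, in 50 mM Tris pH 7.5 with 1 M NaCl and 1 mg/ml BSA at 25° C; substrate Z-Gly-Pro-AMC, ≤0.1% DMSO. AMC fluorescence read at ex 380/em 460 nm; % signal-rate decrease vs no-inhibitor control, 8-point curves fitted to a four-parameter logistic for IC50.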

In the next assay the target is T2, recombinant human DPP9 (Homo sapiens, UniProt Q86TI2).
T2 construct: purchased R&D Systems
Briefly: DPP9 inhibition, fluorogenic substrate H-Gly-Pro-AMC. The essentials:
(§1)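 Enzyme per reaction: 50 ng DPP9, 20 ng DPP8, 10 ng each DPP7 and PREP. Compounds were serially diluted (8 points, up to 0.5% DMSO) and incubated at 25 °C.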

The next assay has as its target T3, recombinant human PREP (Homo sapiens, UniProt P48147).
T3 construct: purchased R&D System
T3 sequence (P48147 1-710): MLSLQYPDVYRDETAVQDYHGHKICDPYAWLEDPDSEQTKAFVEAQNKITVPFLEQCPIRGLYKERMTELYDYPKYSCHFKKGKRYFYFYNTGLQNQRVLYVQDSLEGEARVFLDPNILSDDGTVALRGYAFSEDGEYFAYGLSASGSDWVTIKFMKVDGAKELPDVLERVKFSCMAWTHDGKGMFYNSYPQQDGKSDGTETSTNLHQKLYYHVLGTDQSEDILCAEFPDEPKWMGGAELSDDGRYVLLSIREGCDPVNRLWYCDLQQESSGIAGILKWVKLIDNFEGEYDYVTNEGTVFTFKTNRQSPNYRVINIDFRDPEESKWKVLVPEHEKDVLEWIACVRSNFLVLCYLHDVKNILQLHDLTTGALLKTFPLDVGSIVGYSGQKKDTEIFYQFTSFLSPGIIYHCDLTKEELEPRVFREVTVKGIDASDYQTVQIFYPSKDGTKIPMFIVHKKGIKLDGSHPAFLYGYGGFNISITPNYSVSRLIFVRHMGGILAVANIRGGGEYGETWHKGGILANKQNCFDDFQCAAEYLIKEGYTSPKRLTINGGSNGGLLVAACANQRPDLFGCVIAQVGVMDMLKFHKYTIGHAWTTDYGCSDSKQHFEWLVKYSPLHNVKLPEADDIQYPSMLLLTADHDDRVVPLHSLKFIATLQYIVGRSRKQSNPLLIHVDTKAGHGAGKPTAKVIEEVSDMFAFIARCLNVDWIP
Briefly: PREP inhibition, fluorogenic substrate Z-Gly-Pro-AMC. The following applies: Inhibitory Activity (IC50, nM) PREP. The essentials: as §1

A further assay deals with T4, recombinant human DPP7 (Homo sapiens, UniProt Q9UHL4).
T4 construct: purchased R&D Systems
The assay can be described thus: DPP7 inhibition, fluorogenic substrate Lys-Pro-AMC. The essentials:
as §1

The next assay deals with DPP4 (Homo sapiens, UniProt P27487). Briefly: DPP4 inhibition, fluorogenic substrate H-Gly-Pro-AMC. Further details: purchased R&D Systems.
For another assay, the target named is T5, recombinant human DPP8 (Homo sapiens, UniProt Q6V1X1).
T5 construct: purchased PBS Bioscience
Briefly: DPP8 inhibition, fluorogenic substrate Z-Ala-Pro-AMC. The protocol: The compounds according to the present technology were evaluated in terms of the inhibitory effect on the activity of dipeptidyl peptidases including FAP by using a substrate producing fluorescent substances upon enzymatic decomposition. The test was conducted at 25° C. to get a final reaction volume of 100 μL in a 96 black well plate. […] Briefly, the test compounds were dissolved in dimethyl sulfoxide (DMSO) at a concentration of 20 mM and then subjected to serial dilution, thereby creating an 8 point curve. As for the control group, a 6 point curve created by serial dilution of Talabostat in the same buffer solution was used. Fluorescence intensity was measured using a microplate reader (Flexstation3, Molecular Devices) under the wavelength condition exciting at 380 nm and reading the emission at 460 nm. The inhibitory effect of the test compounds was measured as a decrease (%) in the signal rate as compared to the control group without any inhibitor. Data was fixed to a logistic model with four variables and IC50 value was calculated using GraphPad Prism program. As for recombinant human DPP4 (R&D Systems), 25 mM tris (pH 8.0) buffer as a buffer solution and H-Gly-Pro-AMC (Bachem) as a substrate were used. As for recombinant human DPP7 (R&D Systems), 25 mM MES (pH 6.0) buffer as a buffer solution and Lys-Pro-AMC (Bachem) as a substrate were used. As for recombinant human DPP8 (PBS Bioscience), as a buffer solution, a 10 mM tris (pH 7.4) buffer comprising 10 mM of magnesium chloride and 0.05% of Tween 20, and Z-Ala-Pro-AMC (BPS Bioscience) as a substrate were used. As for recombinant human DPP9 (R&D Systems), a 25 mM tris (pH 8.0) buffer as a buffer solution and H-Gly-Pro-AMC (Bachem) as a substrate were used. As for recombinant human PREP (R&D System), as a buffer solution, a 25 mM tris (pH 7.5) buffer comprising 250 mM sodium chloride and 2.5 mM DTT (Dithiolthreitol), and Z-Gly-Pro-AMC (Bachem) as a substrate were used. The evaluation was made by using 10 ng of DPP4, PDD7, and PREP, 20 ng of DPP8, and 50 ng of DPP9 based on the final reaction. In the evaluation of DPP4, the test compounds were subjected to serial dilution in a buffer under the condition containing up to 0.1% of DMSO. In the evaluation of DPP7, DPP8, DPP9, and PREP, the test compounds were subjected to serial dilution in each buffer under the condition containing up to 0.5% of DMSO.

Setting [1] is: recombinant human FAP, substrate Z-Gly-Pro-AMC.
Setting [2] is: 25° C., Z-Gly-Pro-AMC substrate.
Where [3] appears, read: 25° C., H-Gly-Pro-AMC substrate.
Setting [4] is: 25° C., Z-Ala-Pro-AMC substrate.

Like-named read-outs stand apart in the source and are kept apart here.

T2 sequence (Q86TI2 whole entry): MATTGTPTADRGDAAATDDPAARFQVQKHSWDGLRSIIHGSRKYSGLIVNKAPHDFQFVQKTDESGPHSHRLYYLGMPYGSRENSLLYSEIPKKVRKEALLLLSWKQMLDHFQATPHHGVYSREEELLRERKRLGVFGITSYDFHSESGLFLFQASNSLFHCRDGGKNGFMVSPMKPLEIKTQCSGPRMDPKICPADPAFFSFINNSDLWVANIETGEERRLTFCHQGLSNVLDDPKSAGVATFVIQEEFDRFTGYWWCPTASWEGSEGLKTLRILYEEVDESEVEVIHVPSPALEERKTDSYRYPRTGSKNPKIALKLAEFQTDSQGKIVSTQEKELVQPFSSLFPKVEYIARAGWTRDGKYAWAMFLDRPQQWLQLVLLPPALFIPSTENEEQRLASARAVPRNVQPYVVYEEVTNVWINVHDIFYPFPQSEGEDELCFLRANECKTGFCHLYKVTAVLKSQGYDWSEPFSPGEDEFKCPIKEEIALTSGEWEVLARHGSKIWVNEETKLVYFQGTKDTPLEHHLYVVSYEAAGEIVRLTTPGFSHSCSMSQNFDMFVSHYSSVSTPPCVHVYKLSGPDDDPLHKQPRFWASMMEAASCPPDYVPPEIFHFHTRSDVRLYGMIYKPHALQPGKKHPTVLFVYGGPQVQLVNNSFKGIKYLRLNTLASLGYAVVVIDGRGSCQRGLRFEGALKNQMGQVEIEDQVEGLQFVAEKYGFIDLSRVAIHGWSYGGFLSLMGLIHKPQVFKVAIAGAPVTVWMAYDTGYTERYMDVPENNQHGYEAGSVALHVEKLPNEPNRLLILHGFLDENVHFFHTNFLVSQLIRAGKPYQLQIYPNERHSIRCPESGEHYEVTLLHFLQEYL
T5 sequence (Q6V1X1 whole entry): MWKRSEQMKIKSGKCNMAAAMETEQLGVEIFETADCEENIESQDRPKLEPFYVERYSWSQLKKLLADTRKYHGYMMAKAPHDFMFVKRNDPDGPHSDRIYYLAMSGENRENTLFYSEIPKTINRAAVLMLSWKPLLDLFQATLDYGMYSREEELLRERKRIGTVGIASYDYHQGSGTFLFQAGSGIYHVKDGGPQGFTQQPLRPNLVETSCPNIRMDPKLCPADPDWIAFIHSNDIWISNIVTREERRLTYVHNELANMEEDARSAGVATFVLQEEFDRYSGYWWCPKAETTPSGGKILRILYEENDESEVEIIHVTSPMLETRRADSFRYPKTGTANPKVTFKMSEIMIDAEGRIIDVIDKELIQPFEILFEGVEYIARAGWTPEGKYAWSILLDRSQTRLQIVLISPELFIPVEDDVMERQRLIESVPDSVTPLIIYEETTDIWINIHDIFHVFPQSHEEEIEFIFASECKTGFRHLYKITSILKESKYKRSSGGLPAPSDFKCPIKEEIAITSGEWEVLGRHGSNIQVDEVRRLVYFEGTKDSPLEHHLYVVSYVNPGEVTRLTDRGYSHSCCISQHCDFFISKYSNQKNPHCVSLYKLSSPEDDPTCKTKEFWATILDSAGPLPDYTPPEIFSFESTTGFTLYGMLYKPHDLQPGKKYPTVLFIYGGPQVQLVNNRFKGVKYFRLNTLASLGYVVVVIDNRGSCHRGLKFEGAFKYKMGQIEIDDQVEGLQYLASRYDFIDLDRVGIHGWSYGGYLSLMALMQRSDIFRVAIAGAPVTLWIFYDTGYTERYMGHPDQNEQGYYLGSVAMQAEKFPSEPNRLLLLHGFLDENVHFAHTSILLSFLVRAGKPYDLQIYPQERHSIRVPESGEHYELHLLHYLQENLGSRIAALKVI
Sequence of DPP4 (P27487 whole entry): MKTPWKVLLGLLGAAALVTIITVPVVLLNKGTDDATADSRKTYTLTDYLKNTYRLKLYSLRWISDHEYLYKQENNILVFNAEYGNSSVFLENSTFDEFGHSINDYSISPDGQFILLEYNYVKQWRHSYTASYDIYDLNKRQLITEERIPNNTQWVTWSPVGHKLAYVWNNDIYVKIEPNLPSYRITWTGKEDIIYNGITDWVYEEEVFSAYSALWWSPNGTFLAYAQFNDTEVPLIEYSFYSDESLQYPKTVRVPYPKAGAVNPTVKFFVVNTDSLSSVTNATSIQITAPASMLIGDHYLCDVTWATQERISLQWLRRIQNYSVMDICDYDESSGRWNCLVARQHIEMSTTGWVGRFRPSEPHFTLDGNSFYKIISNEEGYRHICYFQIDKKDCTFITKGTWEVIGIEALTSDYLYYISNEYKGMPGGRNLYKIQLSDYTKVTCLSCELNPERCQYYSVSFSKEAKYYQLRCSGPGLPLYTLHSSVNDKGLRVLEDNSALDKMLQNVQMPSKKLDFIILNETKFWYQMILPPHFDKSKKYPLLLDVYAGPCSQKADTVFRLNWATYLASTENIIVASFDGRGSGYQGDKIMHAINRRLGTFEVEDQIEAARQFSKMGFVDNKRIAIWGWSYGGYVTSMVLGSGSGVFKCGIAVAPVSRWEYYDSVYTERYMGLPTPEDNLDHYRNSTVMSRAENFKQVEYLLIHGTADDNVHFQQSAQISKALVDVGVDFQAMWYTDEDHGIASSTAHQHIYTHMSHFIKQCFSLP

On to `N#C[C@@H]1C[C@H](F)CN1C(=O)CN1CC[C@H](Nc2cnc3ccccc3c2)C1` [Example 249, (2S,4S)-4-fluoro-1-[2-[(3S)-3-(3-quinolylamino)pyrrolidin-1-yl]acetyl]pyrrolidine-2-carbonitrile], for which the 50% inhibitory concentration (IC50) – broadly, the concentration needed to halve the response being measured – is 0.006 µM at Recombinant human FAP (setting [1]); 5.77 µM on recombinant human DPP9 (recombinant human DPP9); 1050 nM on recombinant human PREP (recombinant human PREP); 0.489 µM on recombinant human DPP7 (recombinant human DPP7); 1.45 µM on DPP4 (recombinant human DPP4); above 3 µM on recombinant human DPP8 (recombinant human DPP8).

As to `COc1cccc2c(OC3CCN(CC(=O)N4C[C@@H](F)C[C@H]4C#N)CC3)cc(C(F)(F)F)nc12` [Example 415, (2S,4S)-4-fluoro-1-[2-[4-[[8-methoxy-2-(trifluoromethyl)-4-quinolyl]oxy]-1-piperidyl]acetyl]pyrrolidine-2-carbonitrile], the IC50 at Recombinant human FAP (setting [1]) was 0.0064 µM; at recombinant human DPP9 (recombinant human DPP9) it was 39.4 µM; on recombinant human PREP (recombinant human PREP) it was 1410 nM; on recombinant human DPP7 (recombinant human DPP7), 13.5 µM; at DPP4 (recombinant human DPP4) it was above 10 µM; at recombinant human DPP8 (recombinant human DPP8), 16.5 µM.

On to `CN(c1cccc2cnccc12)C1CCN(CC(=O)N2CCC[C@H]2C#N)CC1` [Example 313, (2S)-1-[2-[4-[5-isoquinolyl(methyl)amino]-1-piperidyl]acetyl]pyrrolidine-2-carbonitrile], for which the IC50 was 0.0739 µM on Recombinant human FAP (setting [1]); 13.7 µM on recombinant human DPP9 (recombinant human DPP9); 9360 nM at recombinant human PREP (recombinant human PREP); above 100 µM on recombinant human DPP7 (recombinant human DPP7); above 10 µM at DPP4 (recombinant human DPP4); above 100 µM at recombinant human DPP8 (recombinant human DPP8).

Take `N#C[C@@H]1C[C@H](F)CN1C(=O)CN1CCC(Nc2cccc3ncccc23)CC1` [Example 113, (2S,4S)-4-fluoro-1-(2-(4-(quinolin-5-ylamino)piperidin-1-yl)acetyl)pyrrolidine-2-carbonitrile]: the IC50 on Recombinant human FAP (setting [2]) came to 0.00165 µM; at recombinant human DPP9 (setting [3]) it was 3.97 µM; on recombinant human PREP (setting [2]), 2930 nM; at recombinant human DPP7 it was 0.342 µM; at recombinant human DPP8 (setting [4]), 2.41 µM. The inhibition (usually the share of the control response that was lost under treatment) at 1 µM on DPP4 (read-out: hDPP4 inhibition % at 1 μM) was found to be 20%.

On to `CN(c1cc2ccccc2cn1)C1CCN(CC(=O)N2C[C@@H](F)C[C@H]2C#N)CC1` [Example 317, (2S,4S)-4-fluoro-1-[2-[4-[3-isoquinolyl(methyl)amino]-1-piperidyl]acetyl]pyrrolidine-2-carbonitrile], for which the IC50 on Recombinant human FAP (setting [1]) is 0.0027 µM; on recombinant human DPP9 (recombinant human DPP9) it was 7.07 µM; on recombinant human PREP (recombinant human PREP) it was 299 nM; on recombinant human DPP7 (recombinant human DPP7), 1.85 µM; on DPP4 (recombinant human DPP4), above 10 µM; at recombinant human DPP8 (recombinant human DPP8), above 100 µM.

For the compound `N#C[C@@H]1C[C@H](F)CN1C(=O)CN1CCC(Oc2ccnc3ccc(C(F)(F)F)cc23)CC1` [Example 411, (2S,4S)-4-fluoro-1-[2-[4-[[6-(trifluoromethyl)-4-quinolyl]oxy]-1-piperidyl]acetyl]pyrrolidine-2-carbonitrile], the IC50 was 0.0025 µM on Recombinant human FAP (setting [1]); 29.4 µM on recombinant human DPP9 (recombinant human DPP9); 10600 nM on recombinant human PREP (recombinant human PREP); 3.15 µM on recombinant human DPP7 (recombinant human DPP7); above 10 µM on DPP4 (recombinant human DPP4); 9.92 µM at recombinant human DPP8 (recombinant human DPP8).

Consider `N#C[C@@H]1CC(F)(F)CN1C(=O)CN1CC[C@H](Oc2ccnc3c(C(F)(F)F)cccc23)C1` [Example 104, (S)-4,4-difluoro-1-(2-((S)-3-((8-(trifluoromethyl)quinolin-4-yl)oxy)pyrrolidin-1-yl)acetyl)pyrrolidine-2-carbonitrile], for which the IC50 was 0.00114 µM at Recombinant human FAP (setting [2]); 22.2 µM on recombinant human DPP9 (setting [3]); 3080 nM on recombinant human PREP (setting [2]); 0.0834 µM at recombinant human DPP7; above 1 µM on DPP4 (setting [3]); 16.2 µM on recombinant human DPP8 (setting [4]).

Take `N#C[C@@H]1C[C@H](F)CN1C(=O)CN1CC[C@@H](Nc2ccnc3ccccc23)C1` [Example 170, (2S,4S)-4-fluoro-1-[2-[(3R)-3-(4-quinolylamino)pyrrolidin-1-yl]acetyl]pyrrolidine-2-carbonitrile]: the half-inhibitory concentration (IC50) at Recombinant human FAP (setting [1]) is 0.0035 µM; on recombinant human DPP9 (recombinant human DPP9) it was 2.7 µM; on recombinant human PREP (recombinant human PREP), 7980 nM; at recombinant human DPP7 (recombinant human DPP7), 0.302 µM; on recombinant human DPP8 (recombinant human DPP8), 14 µM.

On to `N#C[C@@H]1C[C@H](F)CN1C(=O)CN1CC[C@@H](Nc2ccc3ncccc3c2)C1` [Example 167, (2S,4S)-4-fluoro-1-[2-[(3R)-3-(6-quinolylamino)pyrrolidin-1-yl]acetyl]pyrrolidine-2-carbonitrile], for which the IC50 is 0.0014 µM on Recombinant human FAP (setting [1]); 2.56 µM on recombinant human DPP9 (recombinant human DPP9); 5860 nM at recombinant human PREP (recombinant human PREP); 2.04 µM on recombinant human DPP7 (recombinant human DPP7); 6.28 µM on recombinant human DPP8 (recombinant human DPP8).

Turning to `COc1cccc2cc(N(C)[C@H]3CCN(CC(=O)N4CCC[C@H]4C#N)C3)cnc12` [Example 154, (S)-1-(2-((S)-3-((8-methoxyquinolin-3-yl)(methyl)amino)pyrrolidin-1-yl)acetyl)pyrrolidine-2-carbonitrile], the IC50 at Recombinant human FAP (setting [2]) turned out to be 0.0052 µM; at recombinant human DPP9 (setting [3]), 41.7 µM; on recombinant human PREP (setting [2]), 970 nM; on recombinant human DPP7 it was 3.31 µM; on recombinant human DPP8 (setting [4]), 22 µM.
